This is an account of results in PubChem BioAssay AID270 (DTP/NCI, 2004).

Where “and” joins values, the source holds several entries; their conditions need not be identical. Equal entries are not always repeated. Inconclusive results are not listed.

This assay has as its system BDF1 mice, s.c. Lewis lung carcinoma, T/C %. Briefly: NCI In Vivo Anticancer Drug Screen. Data for tumor model Lewis Lung Carcinoma (subcutaneous) in B6D2F1 (BDF1) mice. The method in brief: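 Antitumor effect in vivo is scored from survival or tumor burden, reported as treated relative to vehicle controls.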
[1] abbreviates: endpoint: median survival time, dose: 0.12 mg/kg/injection, schedule: Q01DX009 (ip), vehicle: saline, higher = longer survival.
The mark [2] stands for this setting: endpoint: median survival time, dose: 0.25 mg/kg/injection, schedule: Q01DX009 (ip), vehicle: saline, higher = longer survival.
The mark [3] stands for this setting: endpoint: median survival time, dose: 0.5 mg/kg/injection, schedule: Q01DX009 (ip), vehicle: saline, higher = longer survival.
The mark [4] stands for this setting: endpoint: median survival time, dose: 1.0 mg/kg/injection, schedule: Q01DX009 (ip), vehicle: saline, higher = longer survival.

As for `O=NN(CCCl)C(=O)NCCCl`, the T/C reads like this: (endpoint: mean tumor weight, dose: 1.57 mg/kg/injection, schedule: Q01DX011 (ip), vehicle: saline, higher = larger tumour) 78 % of control; (endpoint: mean tumor weight, dose: 3.13 mg/kg/injection, schedule: Q01DX011 (ip), vehicle: saline, higher = larger tumour) 56 % of control; (endpoint: mean tumor weight, dose: 4.0 mg/kg/injection, schedule: Q01DX011 (ip), vehicle: other, higher = larger tumour) 41 % of control; (endpoint: mean tumor weight, dose: 6.25 mg/kg/injection, schedule: Q01DX011 (ip), vehicle: saline, higher = larger tumour) 4 % of control and 14 % of control; (endpoint: mean tumor weight, dose: 12.5 mg/kg/injection, schedule: Q01DX011 (ip), vehicle: saline, higher = larger tumour) 3 % of control; (endpoint: median survival time, dose: 0.5 mg/kg/injection, schedule: Q08HX024 (ip), vehicle: Klucel (hydroxypropylcellulose) (HPC), higher = longer survival) 90 % of control. The T/C is 91 % of control (endpoint: median survival time, dose: 1.0 mg/kg/injection, schedule: Q08HX024 (ip), vehicle: Klucel (hydroxypropylcellulose) (HPC), higher = longer survival); 108 % of control (endpoint: median survival time, dose: 5.0 mg/kg/injection, schedule: Q01DX001 (ip), vehicle: Klucel (hydroxypropylcellulose) (HPC), higher = longer survival); 100 % of control and 104 % of control (endpoint: median survival time, dose: 5.0 mg/kg/injection, schedule: Q01DX001 (ip), vehicle: saline + alcohol, higher = longer survival); 113 % of control (endpoint: median survival time, dose: 5.0 mg/kg/injection, schedule: Q01DX001 (ip), vehicle: saline with Tween-80, higher = longer survival); 113 % of control (endpoint: median survival time, dose: 6.7 mg/kg/injection, schedule: Q01DX005 (ip), vehicle: saline + alcohol, higher = longer survival); 120 % of control (endpoint: median survival time, dose: 10.0 mg/kg/injection, schedule: Q01DX001 (ip), vehicle: Klucel (hydroxypropylcellulose) (HPC), higher = longer survival). Also, the T/C by setting is: (endpoint: median survival time, dose: 10.0 mg/kg/injection, schedule: Q01DX001 (ip), vehicle: saline + alcohol, higher = longer survival) 96 % of control and 116 % of control; (endpoint: median survival time, dose: 10.0 mg/kg/injection, schedule: Q01DX001 (ip), vehicle: saline with Tween-80, higher = longer survival) 99 % of control and 102 % of control; (endpoint: median survival time, dose: 13.0 mg/kg/injection, schedule: Q01DX001 (ip), vehicle: saline + alcohol, higher = longer survival) 100 % of control; (endpoint: median survival time, dose: 13.5 mg/kg/injection, schedule: Q01DX001 (ip), vehicle: Klucel (hydroxypropylcellulose) (HPC), higher = longer survival) 160 % of control; (endpoint: median survival time, dose: 15.0 mg/kg/injection, schedule: Q01DX005 (ip), vehicle: saline + alcohol, higher = longer survival) 71 % of control and 85 % of control; (endpoint: median survival time, dose: 20.0 mg/kg/injection, schedule: Q01DX001 (ip), vehicle: Klucel (hydroxypropylcellulose) (HPC), higher = longer survival) 117 % of control. The T/C reads like this: (endpoint: median survival time, dose: 20.0 mg/kg/injection, schedule: Q01DX001 (ip), vehicle: saline + alcohol, higher = longer survival) 104 % of control and 121 % of control; (endpoint: median survival time, dose: 20.0 mg/kg/injection, schedule: Q01DX001 (ip), vehicle: saline with Tween-80, higher = longer survival) 111 % of control and 119 % of control; (endpoint: median survival time, dose: 26.0 mg/kg/injection, schedule: Q01DX001 (ip), vehicle: saline + alcohol, higher = longer survival) 117 % of control; (endpoint: median survival time, dose: 27.0 mg/kg/injection, schedule: Q01DX001 (ip), vehicle: Klucel (hydroxypropylcellulose) (HPC), higher = longer survival) 105 % of control; (endpoint: median survival time, dose: 30.0 mg/kg/injection, schedule: Q01DX001 (ip), vehicle: saline + alcohol, higher = longer survival) 163 % of control; (endpoint: median survival time, dose: 39.0 mg/kg/injection, schedule: Q01DX001 (ip), vehicle: saline + alcohol, higher = longer survival) 100 % of control. Further, the T/C (endpoint: median survival time, dose: 40.0 mg/kg/injection, schedule: Q01DX001 (ip), vehicle: Klucel (hydroxypropylcellulose) (HPC), higher = longer survival) was 156 % of control; the T/C (endpoint: median survival time, dose: 40.0 mg/kg/injection, schedule: Q01DX001 (ip), vehicle: saline with Tween-80, higher = longer survival) is 121 % of control; the T/C (endpoint: median survival time, dose: 80.0 mg/kg/injection, schedule: Q01DX001 (ip), vehicle: Klucel (hydroxypropylcellulose) (HPC), higher = longer survival) was 217 % of control; the T/C (endpoint: median survival time, dose: 80.0 mg/kg/injection, schedule: Q01DX001 (ip), vehicle: saline + alcohol, higher = longer survival) was 95 % of control; the T/C (endpoint: median tumor weight (est.), dose: 14.0 mg/kg/injection, schedule: Q01DX001 (ip), vehicle: saline + alcohol, higher = larger tumour) is 70 % of control; the T/C (endpoint: median tumor weight (est.), dose: 27.0 mg/kg/injection, schedule: Q01DX001 (ip), vehicle: saline + alcohol, higher = larger tumour) is 65 % of control. Besides, the T/C (endpoint: median tumor weight (est.), dose: 41.0 mg/kg/injection, schedule: Q01DX001 (ip), vehicle: saline + alcohol, higher = larger tumour) is 34 % of control.

`COc1cc2nccc3c4ccccc4n(c1=O)c23`: the T/C reads like this: (endpoint: median survival time, dose: 50.0 mg/kg/injection, schedule: Q01DX009 (ip), vehicle: Klucel (hydroxypropylcellulose) (HPC), higher = longer survival) 114 % of control; (endpoint: median survival time, dose: 100.0 mg/kg/injection, schedule: Q01DX009 (ip), vehicle: Klucel (hydroxypropylcellulose) (HPC), higher = longer survival) 110 % of control; (endpoint: median survival time, dose: 200.0 mg/kg/injection, schedule: Q01DX009 (ip), vehicle: Klucel (hydroxypropylcellulose) (HPC), higher = longer survival) 120 % of control.

`CO[C@@]12[C@H](COC(N)=O)C3=C(C(=O)C(C)=C(N)C3=O)N1C[C@@H]1N[C@@H]12`: the T/C under setting [1] is 98 % of control; the T/C (endpoint: median survival time, dose: 0.25 mg/kg/injection, schedule: Q01DX009 (ip), vehicle: Klucel (hydroxypropylcellulose) (HPC), higher = longer survival) was 96 % of control; the T/C under setting [2] was 98 % of control; the T/C (endpoint: median survival time, dose: 0.5 mg/kg/injection, schedule: Q01DX009 (ip), vehicle: Klucel (hydroxypropylcellulose) (HPC), higher = longer survival) was 96 % of control; the T/C under setting [3] was 96 % of control; the T/C under setting [4] was 103 % of control.

On to `COc1cc2c(c(OC)c1OC)-c1cc3c(cc1[C@@H](OC(C)=O)[C@@H]1COC(=O)[C@H]1C2)OCO3`, for which the T/C runs as follows: (endpoint: median survival time, dose: 2.5 mg/kg/injection, schedule: Q01DX009 (ip), vehicle: Klucel (hydroxypropylcellulose) (HPC), higher = longer survival) 94 % of control; (endpoint: median survival time, dose: 5.0 mg/kg/injection, schedule: Q01DX009 (ip), vehicle: Klucel (hydroxypropylcellulose) (HPC), higher = longer survival) 97 % of control; (endpoint: median survival time, dose: 10.0 mg/kg/injection, schedule: Q01DX009 (ip), vehicle: Klucel (hydroxypropylcellulose) (HPC), higher = longer survival) 95 % of control.

On to `O=C(O)c1ccc(-c2ccccc2)cc1`, for which the T/C by setting is: (endpoint: mean tumor weight, dose: 60.0 mg/kg/injection, schedule: Q01DX011 (ip), vehicle: carboxymethylcellulose (CMC), higher = larger tumour) 61 % of control; (endpoint: mean tumor weight, dose: 90.0 mg/kg/injection, schedule: Q01DX011 (ip), vehicle: carboxymethylcellulose (CMC), higher = larger tumour) 80 % of control; (endpoint: mean tumor weight, dose: 135.0 mg/kg/injection, schedule: Q01DX011 (ip), vehicle: carboxymethylcellulose (CMC), higher = larger tumour) 65 % of control; (endpoint: mean tumor weight, dose: 200.0 mg/kg/injection, schedule: Q01DX011 (ip), vehicle: carboxymethylcellulose (CMC), higher = larger tumour) 33 % of control and 42 % of control.

For `CCCCCCCCCCCCCCCC(=O)OCC1OC(n2ccc(N)nc2=O)C(O)C1O` (configuration not stated), the T/C reads like this: (endpoint: median tumor weight (est.), dose: 12.0 mg/kg/injection, schedule: Q01DX015 (ip), vehicle: saline with Tween-80, higher = larger tumour) 54 % of control; (endpoint: median tumor weight (est.), dose: 18.0 mg/kg/injection, schedule: Q01DX015 (ip), vehicle: saline with Tween-80, higher = larger tumour) 66 % of control; (endpoint: median tumor weight (est.), dose: 27.0 mg/kg/injection, schedule: Q01DX015 (ip), vehicle: saline with Tween-80, higher = larger tumour) 59 % of control.

For `CC(C)(CC(=O)O)CC(=O)OCC(=O)[C@@]1(O)CC[C@H]2[C@@H]3CCC4=CC(=O)C=C[C@]4(C)[C@H]3[C@@H](O)C[C@@]21C`, the T/C by setting is: (endpoint: mean tumor weight, dose: 40.0 mg/kg/injection, schedule: Q01DX011 (sc), vehicle: steriod suspending solution, higher = larger tumour) 69 % of control; (endpoint: mean tumor weight, dose: 80.0 mg/kg/injection, schedule: Q01DX011 (sc), vehicle: steriod suspending solution, higher = larger tumour) 76 % of control; (endpoint: mean tumor weight, dose: 160.0 mg/kg/injection, schedule: Q01DX011 (sc), vehicle: steriod suspending solution, higher = larger tumour) 60 % of control; (endpoint: mean tumor weight, dose: 320.0 mg/kg/injection, schedule: Q01DX011 (sc), vehicle: steriod suspending solution, higher = larger tumour) 51 % of control and 57 % of control; (endpoint: mean tumor weight, dose: 640.0 mg/kg/injection, schedule: Q01DX011 (sc), vehicle: steriod suspending solution, higher = larger tumour) 31 % of control.

For `CC(=O)OC(C)(C)/C=C/C(=O)[C@](C)(O)[C@H]1[C@H](O)C[C@@]2(C)[C@@H]3CC=C4[C@@H](CC[C@H](O)C4(C)C)[C@]3(CO)C(=O)C[C@]12C`, the T/C (endpoint: mean tumor weight, dose: 0.57 mg/kg/injection, schedule: Q01DX011 (ip), vehicle: saline, higher = larger tumour) was 67 % of control.

For the compound `CC[C@@H]1O[C@@H]([C@@H]2CC[C@](O)([C@]3(C)CC[C@@H]([C@@H](C)[C@@]4(O)CC[C@H](C)[C@@H](C[C@@]5(O)O[C@@H]([C@@H](C)[C@H](O)C[C@H]6CC[C@H](C)[C@@H]([C@@H](C)C(=O)O)O6)CC[C@@H]5C)O4)O3)O2)CC[C@@]1(C)O`, the T/C is 106 % of control under setting [1], 110 % of control under setting [2], 106 % of control under setting [3] and 97 % of control under setting [4].

As for `O=[N+]([O-])c1ccc(/C=N\Nc2ccc([N+](=O)[O-])cn2)cc1`, the T/C (endpoint: median survival time, dose: 12.5 mg/kg/injection, schedule: Q01DX009 (ip), vehicle: Klucel (hydroxypropylcellulose) (HPC), higher = longer survival) is 88 % of control and the T/C (endpoint: median survival time, dose: 25.0 mg/kg/injection, schedule: Q01DX009 (ip), vehicle: Klucel (hydroxypropylcellulose) (HPC), higher = longer survival) is 104 % of control.
